Test results taken from PubChem BioAssay AID1963853 (Molecular Pharmacology Branch, DTP, NCI, 2024).
pIC50: −log10 of the molar value.

System: 266295-075-R-J1-PDC spheroid viability
Test: Anticancer human tumor 266295-075-R-J1-PDC patient-derived head and neck squamous carcinoma cell line growth inhibition [POLQ]
Conditions: spheroids with HUVEC and MSC; for pIC50: curve of first compound; for viability, T/C: stronger effect = lower value
Procedure, shortened: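 PDC + HUVEC + MSC complex spheroids; POLQ inhibitors ± partner drugs; top conc. at/near clinical Cmax, else 10 microM (SN-38 1 microM), half-log dilutions; 37 degrees C, 5% CO2.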
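Further: spheroids exposed to compounds for seven days before readout.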

CC(=O)O[C@H]1C(=O)[C@@]2(C)[C@H]([C@H](OC(=O)c3ccccc3)[C@]3(O)C[C@H](OC(=O)[C@H](O)[C@@H](NC(=O)c4ccccc4)c4ccccc4)C(C)=C1C3(C)C)[C@]1(OC(C)=O)CO[C@@H]1C[C@@H]2O + Nc1ccc(C#CCN(C(=O)Cc2ncc(C(F)(F)F)cc2C(F)(F)F)c2ccc(F)cc2)nn1 was tested, and the pIC50 (second compound 0.0316 µM) was less than 5.52, the pIC50 (second compound 0.1 µM) was less than 5.52 and the pIC50 (second compound 0.316 µM) was less than 5.52. For the same compound, the pIC50 (second compound 1 µM) was less than 5.52, the pIC50 (second compound 3.16 µM) was less than 5.52 and the pIC50 (second compound 10 µM) was less than 5.52. It also gave a viability, T/C (second compound 0.0316 µM, first compound 0.00949 µM) of 98.3%, a viability, T/C (second compound 0.0316 µM, first compound 0.03 µM) of 78.9% and a viability, T/C (second compound 0.0316 µM, first compound 0.0949 µM) of 73.9%. For the same compound, the viability, T/C (second compound 0.0316 µM, first compound 0.3 µM) was 76%, the viability, T/C (second compound 0.0316 µM, first compound 0.949 µM) was 78.8% and the viability, T/C (second compound 0.0316 µM, first compound 3 µM) was 78.3%. The viability, T/C (second compound 0.1 µM, first compound 0.00949 µM) was 75.6%, the viability, T/C (second compound 0.1 µM, first compound 0.03 µM) was 84% and the viability, T/C (second compound 0.1 µM, first compound 0.0949 µM) was 69.3%. It also gave a viability, T/C (second compound 0.1 µM, first compound 0.3 µM) of 69.3%, a viability, T/C (second compound 0.1 µM, first compound 0.949 µM) of 70.7% and a viability, T/C (second compound 0.1 µM, first compound 3 µM) of 71.3%. The viability, T/C (second compound 0.316 µM, first compound 0.00949 µM) was 94.1%, the viability, T/C (second compound 0.316 µM, first compound 0.03 µM) was 82.9% and the viability, T/C (second compound 0.316 µM, first compound 0.0949 µM) was 63.7%. For the same compound, the viability, T/C (second compound 0.316 µM, first compound 0.3 µM) was 55.3%, the viability, T/C (second compound 0.316 µM, first compound 0.949 µM) was 77.5% and the viability, T/C (second compound 0.316 µM, first compound 3 µM) was 61.4%. It also gave a viability, T/C (second compound 1 µM, first compound 0.00949 µM) of 81.3%, a viability, T/C (second compound 1 µM, first compound 0.03 µM) of 59.1% and a viability, T/C (second compound 1 µM, first compound 0.0949 µM) of 69%. The viability, T/C (second compound 1 µM, first compound 0.3 µM) was 70.7%, the viability, T/C (second compound 1 µM, first compound 0.949 µM) was 72.7% and the viability, T/C (second compound 1 µM, first compound 3 µM) was 66%. The viability, T/C (second compound 3.16 µM, first compound 0.00949 µM) was 71%, the viability, T/C (second compound 3.16 µM, first compound 0.03 µM) was 80.5% and the viability, T/C (second compound 3.16 µM, first compound 0.0949 µM) was 77.4%. For the same compound, the viability, T/C (second compound 3.16 µM, first compound 0.3 µM) was 62.8%, the viability, T/C (second compound 3.16 µM, first compound 0.949 µM) was 65% and the viability, T/C (second compound 3.16 µM, first compound 3 µM) was 67.4%. The viability, T/C (second compound 10 µM, first compound 0.00949 µM) was 72.4%, the viability, T/C (second compound 10 µM, first compound 0.03 µM) was 74.6% and the viability, T/C (second compound 10 µM, first compound 0.0949 µM) was 63%. It also gave a viability, T/C (second compound 10 µM, first compound 0.3 µM) of 71.1%, a viability, T/C (second compound 10 µM, first compound 0.949 µM) of 76.7% and a viability, T/C (second compound 10 µM, first compound 3 µM) of 77.2%.
With Cn1ncnc1[C@H]1c2n[nH]c(=O)c3cc(F)cc(c23)N[C@@H]1c1ccc(F)cc1 + COC1C(OC(N)=O)C(O)C(Oc2ccc3c(O)c(NC(=O)c4ccc(O)c(CC=C(C)C)c4)c(=O)oc3c2C)OC1(C)C the pIC50 (second compound 0.0316 µM) was less than 7.00, the pIC50 (second compound 0.1 µM) was less than 7.00 and the pIC50 (second compound 0.316 µM) was less than 7.00. The pIC50 (second compound 1 µM) was less than 7.00, the pIC50 (second compound 3.16 µM) was less than 7.00 and the pIC50 (second compound 10 µM) was less than 7.00. For the same compound, the viability, T/C (second compound 0.0316 µM, first compound 0.000316 µM) was 85%, the viability, T/C (second compound 0.0316 µM, first compound 0.001 µM) was 97.4% and the viability, T/C (second compound 0.0316 µM, first compound 0.00316 µM) was 93%. It also gave a viability, T/C (second compound 0.0316 µM, first compound 0.01 µM) of 99.9%, a viability, T/C (second compound 0.0316 µM, first compound 0.0316 µM) of 85.9% and a viability, T/C (second compound 0.0316 µM, first compound 0.1 µM) of 97.1%. For the same compound, the viability, T/C (second compound 0.1 µM, first compound 0.000316 µM) was 97.9%, the viability, T/C (second compound 0.1 µM, first compound 0.001 µM) was 92.7% and the viability, T/C (second compound 0.1 µM, first compound 0.00316 µM) was 70.2%. For the same compound, the viability, T/C (second compound 0.1 µM, first compound 0.01 µM) was 98.5%, the viability, T/C (second compound 0.1 µM, first compound 0.0316 µM) was 93.4% and the viability, T/C (second compound 0.1 µM, first compound 0.1 µM) was 79.9%. It also gave a viability, T/C (second compound 0.316 µM, first compound 0.000316 µM) of 106%, a viability, T/C (second compound 0.316 µM, first compound 0.001 µM) of 87.5% and a viability, T/C (second compound 0.316 µM, first compound 0.00316 µM) of 97.6%. It also gave a viability, T/C (second compound 0.316 µM, first compound 0.01 µM) of 103%, a viability, T/C (second compound 0.316 µM, first compound 0.0316 µM) of 86% and a viability, T/C (second compound 0.316 µM, first compound 0.1 µM) of 83.2%. It also gave a viability, T/C (second compound 1 µM, first compound 0.000316 µM) of 97.2%, a viability, T/C (second compound 1 µM, first compound 0.001 µM) of 86.3% and a viability, T/C (second compound 1 µM, first compound 0.00316 µM) of 88.6%. The viability, T/C (second compound 1 µM, first compound 0.01 µM) was 83.7%, the viability, T/C (second compound 1 µM, first compound 0.0316 µM) was 93.4% and the viability, T/C (second compound 1 µM, first compound 0.1 µM) was 78.9%. The viability, T/C (second compound 3.16 µM, first compound 0.000316 µM) was 86%, the viability, T/C (second compound 3.16 µM, first compound 0.001 µM) was 106% and the viability, T/C (second compound 3.16 µM, first compound 0.00316 µM) was 87.2%. It also gave a viability, T/C (second compound 3.16 µM, first compound 0.01 µM) of 84.5%, a viability, T/C (second compound 3.16 µM, first compound 0.0316 µM) of 94.3% and a viability, T/C (second compound 3.16 µM, first compound 0.1 µM) of 80.5%. It also gave a viability, T/C (second compound 10 µM, first compound 0.000316 µM) of 101%, a viability, T/C (second compound 10 µM, first compound 0.001 µM) of 80.8% and a viability, T/C (second compound 10 µM, first compound 0.00316 µM) of 86.9%. For the same compound, the viability, T/C (second compound 10 µM, first compound 0.01 µM) was 104%, the viability, T/C (second compound 10 µM, first compound 0.0316 µM) was 88.7% and the viability, T/C (second compound 10 µM, first compound 0.1 µM) was 83.2%.
